Experiment [1] relates to MMP-9 and MMP2 generated by cells induced by TNF-α. As to the kind of experiment: Zymography enzyme activity assay of cells stimulated by TNF-α. Format: cell-based. The settings on record: 20 μM, 10 ng/mL TNF-α. As for the experimental part:
In the Zymography enzyme activity assay, the cells (1×10^6) were planted in a 6-well plate. The next day after the cells were adhered to the wall, the cells were cultured in a serum free DMEM culture medium at an atmosphere of 5% CO2 in an incubator at 37° C. for 24 h. The compound II in different doses were added into the DMEM culture medium. In other test groups, the compound I was added, TNF-α/TGF-β were added or the compound I and TNF-α/TGF-β were added into the DMEM culture medium, wherein the concentration of compound I and TNF-α/TGF-β were […] and 10 ng/ml, respectively. The cells were cultured in the culture medium for 2 h and then washed with PBS. The cell culture medium was putted into a microcentrifuge tube and centrifuged for 10 min at 1500 rpm. The supernatant was taken to perform a protein gel electrophoresis (SDS-PAGE), so as to separate the proteins. Afterwards, the Gelatin or Casein was regarded as the substrate to analysis the enzyme activity of the proteins. Referring to FIG. 20, the Zymography enzyme activity assay was performed to detect the effect of the compound II on the enzyme activity of MMP-9 and MMP2 generated by cells induced and stimulated by 10 ng/mL TNF-α. The Zymography enzyme activity assay was described as the test example 4-1. […] Cells in the test groups included no the compound II. […]

Experiment [2] has as its system EMT-related proteins in human normal breast cells MCF-10A stimulated by TNF-α/TGF-β. As to the kind of experiment: western blotting of EMT-related proteins. The format is cell-based. How it is done: FIG. 2A illustrates the expression results of EMT-related proteins in breast tumor cells MDA-MB-231 after the breast tumor cells MDA-MB-231 have been respectively cultured under compound II having concentrations of 0, 0.5, 1 and 2 μM for 24 h; and FIG. 2B illustrates the expression results of EMT-related proteins in breast tumor cells MCF-7 after the breast tumor cells MCF-7 have been respectively cultured under the compound II having concentrations of 0, 10, 15 and 20 μM for 24 h. FIG. 3A illustrates the western blotting results of EMT-related proteins in the breast tumor cells MDA-MB-468, where the breast tumor cells MDA-MB-468 are treated with the compound I having concentrations of 0, 0.5, 1 and 2 μM for 24 h, and FIG. 3B illustrates the western blotting results of EMT-related proteins in the breast tumor cells MDA-MB-435, where the breast tumor cells MDA-MB-435 are treated with the compound I having concentrations of 0, 2.5, 5 and 7.5 μM for 24 h. FIG. 4 illustrates the western blotting results of EMT-related proteins in the human normal breast cells MCF-10A stimulated by TNF-α/TGF-β, where the human normal breast cells MCF-10A are treated with the compound I having concentrations of 2 μM for 24 h. The human normal breast cells stimulated by TNF-α/TGF-β can cause TNF-α/TGF-β-induced EMT in the human normal breast cells MCF-10A. The steps of western blotting include: washing cells with PBS twice at 4° C.; adding a lysis buffer and rubbing the cells by a rubbr policeman so as to lyse cells; putting the lysed cell solution into a 1.5 ml microcentrifuge tube and shaking for 1 min; centrifuging at 12000 rpm for 10 min and taking the supernatant; measuring concentration of the protein through a Bio-Rad protein assay kit; and storing the remained extracted protein solution at −70° C.; taking 100 μg protein solution and adding a SDS/protein loading buffer having the same volume, where the SDS/protein loading buffer has a concentration two times larger than the protein solution; boiling the mixture of the protein solution and the SDS/protein loading buffer at 100° C. for 10 min; cooling and loading the protein samples in each hole of gel; adjusting the voltage to 100 V and running the protein samples on the gel until the tracking dye in the sample buffer reaches the bottom of the gel; and subsequently transferring the protein from the gel using electrophoresis. A PVDF membrane was soaked in methanol until the paper was totally wet. […] Then luminescence image equipment was used, where the PVDF was placed onto a black metal plate by a plastic pincer and the face including protein was upwards, a 1:1 mixed Chemiluminesent Substrate was added into the membrane and the exposure time depends on the fluorescence intensity of antibodies. […]
Background: Immunoblotting shows a protein as a band on a membrane.

The mark [3] stands for this setting: 2 μM with TNF-α/TGF-β 10 ng/ml, 24 h.

For the molecule `COC1=C(OC)C(=O)C(C)=C(C)C1=O` [compound II], the “enzyme activity of MMP2” value in experiment [1] is on record as “no enzyme activity”.

Regarding `COC1=C(OC)C(=O)C(C)=CC1=O` [compound I], in experiment [2] (setting [3]), the “protein expression amount of E-cadherin and occludin” value was “also increased”; the “protein expression amount of vimentin and β-catenin” value is recorded as “recovered the increase caused by TNF-α/TGF-β stimulating”. Further, in experiment [2] (compound alone 2 μM), the “protein expression amount of E-cadherin and occludin” value is reported as “increased”; the “protein expression amount of vimentin and β-catenin” value is “decreased”.
